From ChEMBL document CHEMBL1126096, “Carbohydrate materials bearing neuraminidase-resistant C-glycosides of sialic acid strongly inhibit the in vitro infectivity of influenza virus” (J Med Chem, 1992)

What was measured:
[1] = tested on: unidentified influenza virus; assay: Potency to inhibit influenza virus (X-31) relative to alpha-C-allyl sialic acid; format: functional
[2] = tested on: unidentified influenza virus; assay: The compound was evaluated for the inhibition of influenza virus (X-31); format: functional, organism-based

Row | Structure (SMILES) | Relative potency [1] | IC50 [2] [mM]
1 | CO[C@]1(C(=O)O)C[C@H](O)[C@@H](NC(C)=O)[C@H]([C@@H](O)[C@H](O)CO)O1 | 2.5 | 4
2 | C=CC[C@@]1(C(=O)O)C[C@H](O)[C@@H](NC(C)=O)[C@H](C(O)C(O)CO)O1 (stereo partly specified) | 1 | 10
3 | C=CC[C@]1(C(=O)O)C[C@H](O)[C@@H](NC(C)=O)[C@H](C(O)C(O)CO)O1 (stereo partly specified) | <0.02 | > 50
